PubChem BioAssay (NCI)
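Where inhibition never reached the appropriate level, the endpoint shown equals the highest concentration tested. Otherwise, values were interpolated linearly from a five-concentration, 48-hour dose response in 96-well plates. The concentration for 50% growth inhibition is given as GI50. TGI marks complete inhibition of growth.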

Legend:
Experiment in all cases: NCI tumour cell line growth inhibition, 48 h
OVCAR-5 ovarian = system: OVCAR-5 ovarian
A498 renal = system: A498 renal
HOP-92 NSCLC = system: HOP-92 NSCLC
SN12C renal = system: SN12C renal
T-47D breast = system: T-47D breast
TK-10 renal = system: TK-10 renal
HCC-2998 colon = system: HCC-2998 colon
NCI-H522 lung = system: NCI-H522 lung
SF-268 CNS = system: SF-268 CNS
K-562 leukemia = system: K-562 leukemia
HOP-62 NSCLC = system: HOP-62 NSCLC
BT-549 breast = system: BT-549 breast
NCI-H226 lung = system: NCI-H226 lung
SK-MEL-5 melanoma = system: SK-MEL-5 melanoma
NCI/ADR-RES ovarian = system: NCI/ADR-RES ovarian
PC-3 prostate = system: PC-3 prostate
CAKI-1 renal = system: CAKI-1 renal
UACC-257 melanoma = system: UACC-257 melanoma
786-0 renal = system: 786-0 renal
CCRF-CEM leukemia = system: CCRF-CEM leukemia
NCI-H23 lung = system: NCI-H23 lung
COLO 205 colon = system: COLO 205 colon
OVCAR-3 ovarian = system: OVCAR-3 ovarian
SNB-75 CNS = system: SNB-75 CNS
SNB-19 CNS = system: SNB-19 CNS
IGROV1 ovarian = system: IGROV1 ovarian
MALME-3M melanoma = system: MALME-3M melanoma
RXF 393 renal = system: RXF 393 renal
SF-295 CNS = system: SF-295 CNS
ACHN renal = system: ACHN renal
EKVX NSCLC = system: EKVX NSCLC
UO-31 renal = system: UO-31 renal
A549 NSCLC = system: A549 NSCLC
U251 CNS = system: U251 CNS
OVCAR-4 ovarian = system: OVCAR-4 ovarian
OVCAR-8 ovarian = system: OVCAR-8 ovarian
SW-620 colon = system: SW-620 colon
HL-60(TB) leukemia = system: HL-60(TB) leukemia
NCI-H460 lung = system: NCI-H460 lung
SF-539 CNS = system: SF-539 CNS
HCT-116 colon = system: HCT-116 colon
SK-OV-3 ovarian = system: SK-OV-3 ovarian
SK-MEL-2 melanoma = system: SK-MEL-2 melanoma
SR leukemia = system: SR leukemia
HCT-15 colon = system: HCT-15 colon
HS 578T breast = system: HS 578T breast
MOLT-4 leukemia = system: MOLT-4 leukemia
KM12 colon = system: KM12 colon
SK-MEL-28 melanoma = system: SK-MEL-28 melanoma
LOX IMVI melanoma = system: LOX IMVI melanoma
MDA-MB-435 = system: MDA-MB-435
HT29 colon = system: HT29 colon
M14 melanoma = system: M14 melanoma
MDA-MB-231 breast = system: MDA-MB-231 breast
DU-145 prostate = system: DU-145 prostate
MCF7 breast = system: MCF7 breast
UACC-62 melanoma = system: UACC-62 melanoma
RPMI-8226 leukemia = system: RPMI-8226 leukemia

In the case of C/C=C(\C)C(=O)O[C@H]1C=CC(=O)O[C@H]1CC[C@H](O)[C@H](C)O, the GI50 (OVCAR-5 ovarian) is reported as 16.9 µM, the TGI (OVCAR-5 ovarian) is reported as 32.1 µM and the GI50 (A498 renal) is reported as 16.4 µM. The TGI (A498 renal) was 30.3 µM, the GI50 (HOP-92 NSCLC) was 6.3 µM and the TGI (HOP-92 NSCLC) was 16.1 µM. It also gave a GI50 (SN12C renal) of 8.06 µM, a TGI (SN12C renal) of 25.3 µM and a GI50 (T-47D breast) of 2.34 µM. The TGI (T-47D breast) was 10.8 µM, the GI50 (TK-10 renal) was 9.78 µM and the TGI (TK-10 renal) was 23.9 µM. For the same molecule, the GI50 (HCC-2998 colon) was 12.3 µM, the TGI (HCC-2998 colon) was 26.3 µM and the GI50 (NCI-H522 lung) was 2.05 µM. The TGI (NCI-H522 lung) was 6.13 µM, the GI50 (SF-268 CNS) was 2.83 µM and the TGI (SF-268 CNS) was 12.3 µM. It also gave a GI50 (K-562 leukemia) of 2.3 µM, a TGI (K-562 leukemia) of 8.72 µM and a GI50 (HOP-62 NSCLC) of 15.3 µM. It also gave a TGI (HOP-62 NSCLC) of 29.7 µM, a GI50 (BT-549 breast) of 6.14 µM and a TGI (BT-549 breast) of 19.9 µM. For the same molecule, the GI50 (NCI-H226 lung) was 4.14 µM, the TGI (NCI-H226 lung) was 16.6 µM and the GI50 (SK-MEL-5 melanoma) was 5.13 µM. It also gave a TGI (SK-MEL-5 melanoma) of 11 µM, a GI50 (NCI/ADR-RES ovarian) of 15.3 µM and a TGI (NCI/ADR-RES ovarian) of 34 µM. The GI50 (PC-3 prostate) was 8.46 µM, the TGI (PC-3 prostate) was 22.7 µM and the GI50 (CAKI-1 renal) was 7.12 µM. It also gave a TGI (CAKI-1 renal) of 13.1 µM, a GI50 (UACC-257 melanoma) of 16.4 µM and a TGI (UACC-257 melanoma) of 34.2 µM. The GI50 (786-0 renal) was 5.46 µM, the TGI (786-0 renal) was 12.8 µM and the TGI (CCRF-CEM leukemia) was 0.335 µM. For the same molecule, the GI50 (NCI-H23 lung) was 15.7 µM, the TGI (NCI-H23 lung) was 34.2 µM and the GI50 (COLO 205 colon) was 3.22 µM. For the same molecule, the TGI (COLO 205 colon) was 10.1 µM, the GI50 (OVCAR-3 ovarian) was 3.06 µM and the TGI (OVCAR-3 ovarian) was 8.79 µM. The GI50 (SNB-75 CNS) was 8.98 µM, the TGI (SNB-75 CNS) was 22.7 µM and the GI50 (SNB-19 CNS) was 12.3 µM. The TGI (SNB-19 CNS) was 26.4 µM, the GI50 (IGROV1 ovarian) was 4.17 µM and the TGI (IGROV1 ovarian) was 19 µM. The GI50 (MALME-3M melanoma) was 4.62 µM, the TGI (MALME-3M melanoma) was 16.1 µM and the GI50 (RXF 393 renal) was 2 µM. It also gave a TGI (RXF 393 renal) of 5.4 µM, a GI50 (SF-295 CNS) of 13 µM and a TGI (SF-295 CNS) of 26.5 µM. It also gave a GI50 (ACHN renal) of 6.42 µM, a TGI (ACHN renal) of 19.7 µM and a GI50 (EKVX NSCLC) of 15.8 µM. The TGI (EKVX NSCLC) was 30.5 µM, the GI50 (UO-31 renal) was 9.06 µM and the TGI (UO-31 renal) was 23.5 µM. For the same molecule, the GI50 (A549 NSCLC) was 18 µM, the TGI (A549 NSCLC) was 36.3 µM and the GI50 (U251 CNS) was 4.64 µM. It also gave a TGI (U251 CNS) of 17.4 µM, a GI50 (OVCAR-4 ovarian) of 6.42 µM and a TGI (OVCAR-4 ovarian) of 20.7 µM. For the same molecule, the GI50 (OVCAR-8 ovarian) was 12.8 µM, the TGI (OVCAR-8 ovarian) was 30.7 µM and the GI50 (SW-620 colon) was 2.64 µM. The TGI (SW-620 colon) was 6.08 µM, the GI50 (HL-60(TB) leukemia) was 0.469 µM and the TGI (HL-60(TB) leukemia) was 4.77 µM. For the same molecule, the GI50 (NCI-H460 lung) was 11.6 µM, the TGI (NCI-H460 lung) was 25.4 µM and the GI50 (SF-539 CNS) was 13.3 µM. The TGI (SF-539 CNS) was 27.1 µM, the GI50 (HCT-116 colon) was 1.38 µM and the TGI (HCT-116 colon) was 2.82 µM. It also gave a GI50 (SK-OV-3 ovarian) of 16.2 µM, a TGI (SK-OV-3 ovarian) of 31 µM and a GI50 (SK-MEL-2 melanoma) of 8.41 µM. It also gave a TGI (SK-MEL-2 melanoma) of 27.9 µM, a GI50 (SR leukemia) of 15.1 µM and a TGI (SR leukemia) of 45.7 µM. For the same molecule, the GI50 (HCT-15 colon) was 3.41 µM, the TGI (HCT-15 colon) was 12.7 µM and the GI50 (HS 578T breast) was 6.8 µM. For the same molecule, the TGI (HS 578T breast) was 18.1 µM, the GI50 (MOLT-4 leukemia) was 0.522 µM and the TGI (MOLT-4 leukemia) was 5.59 µM. The GI50 (KM12 colon) was 12.4 µM, the TGI (KM12 colon) was 29.1 µM and the GI50 (SK-MEL-28 melanoma) was 2.85 µM. It also gave a TGI (SK-MEL-28 melanoma) of 8.05 µM, a GI50 (LOX IMVI melanoma) of 2.24 µM and a TGI (LOX IMVI melanoma) of 5.66 µM. It also gave a GI50 (MDA-MB-435) of 3.43 µM, a TGI (MDA-MB-435) of 12.7 µM and a GI50 (HT29 colon) of 2.38 µM. The TGI (HT29 colon) was 6.65 µM, the GI50 (M14 melanoma) was 6.82 µM and the TGI (M14 melanoma) was 21.9 µM. It also gave a GI50 (MDA-MB-231 breast) of 12.8 µM, a TGI (MDA-MB-231 breast) of 28.3 µM and a GI50 (DU-145 prostate) of 13.8 µM. The TGI (DU-145 prostate) was 27 µM, the GI50 (MCF7 breast) was 2.45 µM and the TGI (MCF7 breast) was 11.3 µM. The GI50 (UACC-62 melanoma) was 6.42 µM, the TGI (UACC-62 melanoma) was 17.3 µM and the GI50 (RPMI-8226 leukemia) was 2.22 µM. For the same molecule, the TGI (RPMI-8226 leukemia) was 7.54 µM.
